According to US12492174B2, “Morpholine-3-carboxamide derivatives as prostaglandin E2 receptor 4 (EP4) agonists for the treatment of gastrointestinal and pulmonary diseases” (NXERA PHARMA UK LIMITED, priority 2022, dated 2025):

Columns and labels:
human EP4 = target: T1, human EP4 (Homo sapiens, UniProt P35408); assay: cAMP Gs functional assay (HTRF cAMP dynamic-2); assay type: cell-based; conditions: for Emax: HEK293, HEK293 cells transfected with EP4 Bacmam virus, positive control 10 uM PGE2; for EC50: HEK293 cells transfected with EP4 Bacmam virus, 30 mins at 37° C., −Log of the molarity (M), read-out: cAMP human EP4 pEC50 (converted)
T1 construct: expressed in transfected cells; host or cells: HEK293 cells transduced with EP4 BacMam virus
Method: Cloning, Baculovirus generation, large scale infection of HEK293 cells and membrane preparation: Human prostaglandin E2 receptor 4 (EP4) was cloned into pBacMam expression vector (GeneScript, UK). Transposition of EP4 DNA was performed using Invitrogen's Bac-to-Bac Baculovirus Expression Systems. P0 baculovirus was generated by transfecting SF9 Cells with bacmid DNA using Cellfectin II transfection reagent (ThermoFisher Scientific, UK). Following P0 generation P1 virus was then generated ready for large scale infection and membrane preparation. HEK293 cells were grown in DMEM (ThermoFisher Scientific, UK), supplemented with 10% heat inactivated fetal bovine serum (FBS). Cells were infected at a seeding density of 3.5 million cells/mL in 500 cm^3 flasks at 5% v/v EP4 Bacman. Expression was carried out over a 36 hr period at 37° C. with 5% CO2. The cells were removed using PBS and a cell scrapper. The cell culture was centrifuged at 2500 RPM for 10 mins at 4° C. The supernatant was then poured off and the pellet stored at −80° C. The pellet was defrosted and re-suspended in 15 mL of homogenising buffer (20 mM HEPES, 10 mM EDTA, pH 7.4). Then homogenised in mechanical homogeniser (VMR) for 10 seconds. The membrane was centrifuged in centrifuge tubes at 40,000 g for 15 mins at 4° C. The supernatant was poured away and re-suspended in 15 mL of homogenising buffer. Homogenised for 20 seconds. The membrane was centrifuged at 40,000 g for 45 mins at 4° C. The membrane was re-suspended in 3 mL of storage buffer (20 mM HEPES, 0.1 mM EDTA, pH 7.4) mixing well. The resulting membranes were then stored at −80° C.
cAMP Gs Functional Assay: cAMP production following EP4 receptor activation was determined using the Homogeneous Time-Resolved Fluorescence (HTRF) cAMP dynamic-2 assay (Cisbio, France). HEK293 cells were transfected using a 0.5% EP4 Bacmam virus for 36 hours, before dissociating the cells, and freezing at −150° C.
On the day of testing, increasing concentration of test compounds, alongside positive controls (10 uM PGE2 (Tocris, Abingdon, UK)) and negative control (DMSO (Sigma-Aldrich, UK) were added to a ProxiPlate-384 Plus, White 384-shallow well Mircoplate, (PerkinElmer, USA) using the ECHO dispense.
Cells were defrosted in a water bath and resuspended in DMEM supplemented with 10% FBS before centrifuging at 1200 RPM for 5 mins to form a pellet. The pellet was resuspended in assay buffer (DMEM+0.5 mM IBMX (Tocris, Abingdon, UK)) to 0.5×10^6 cells/mL. Cell suspension, for a final assay concentration of 5000 cell/well was added using the multidrop to the pre-dispensed assay plate. The plate was then incubated at 37° C. for 30 mins, with 5% CO2. The cAMP production was determined as manufacturer's instructions, before plates were read on a PheraStar fluorescence plate reader (BMG LabTech, Germany).
The pEC50 values (−Log of the molarity (M) in mol/liter) were calculated from the mid-point of the curve using dotmatics as shown in Table 3.

[1] = Unidirectional Caco-2 cell permeability assay; assay type: in vitro ADME; conditions: human, n=2, apical pH 6.5, basolateral pH 7.4, 1 hour, 37° C.
Method: Caco-2 cells (ECACC) were seeded onto 24-well Transwell plates at 2×10^5 cells per well and used in confluent monolayers after a 21 day culture at 37° C. under 5% CO2. Test compounds were incubated at 10 μM, 0.2% DMSO final, n=2 in assay buffer (Hanks balanced salt solution supplemented with 25 mM HEPES, adjusted to pH 6.5). Hanks balanced salt solution supplemented with 25 mM HEPES, adjusted to pH 7.4 (0.2% DMSO final) was used for the basolateral chamber (as receiver).
Incubations were performed at 37° C., with samples removed from both donor and acceptor chambers at T=0 and 1 hour and compound analysed by mass spectrometry (LC-MS/MS) including an analytical internal standard (0.5 μM carbamazepine).
Apparent permeability (Papp) values are shown in Table 4 and were determined from the relationship:
Where V is the volume of each Transwell compartment (apical 125 μL, basolateral 600 μL), and concentrations are the relative MS responses for compound (normalized to internal standard) in the donor chamber before incubation and acceptor chamber at the end of the incubation Area=area of cells exposed for drug transfer (0.33 cm^2).
Lucifer Yellow (LY) was added to the apical buffer in all wells to assess viability of the cell layer. As LY cannot freely permeate lipophilic barriers, a high degree of LY transport indicates poor integrity of the cell layer and wells with a LY Papp>10×10^−6 cm/s were rejected.
Compound recovery from the wells was determined from MS responses (normalized to internal standard) in donor and acceptor chambers at the end of incubation compared to response in the donor chamber pre-incubation.

T1 sequence (P35408 whole entry): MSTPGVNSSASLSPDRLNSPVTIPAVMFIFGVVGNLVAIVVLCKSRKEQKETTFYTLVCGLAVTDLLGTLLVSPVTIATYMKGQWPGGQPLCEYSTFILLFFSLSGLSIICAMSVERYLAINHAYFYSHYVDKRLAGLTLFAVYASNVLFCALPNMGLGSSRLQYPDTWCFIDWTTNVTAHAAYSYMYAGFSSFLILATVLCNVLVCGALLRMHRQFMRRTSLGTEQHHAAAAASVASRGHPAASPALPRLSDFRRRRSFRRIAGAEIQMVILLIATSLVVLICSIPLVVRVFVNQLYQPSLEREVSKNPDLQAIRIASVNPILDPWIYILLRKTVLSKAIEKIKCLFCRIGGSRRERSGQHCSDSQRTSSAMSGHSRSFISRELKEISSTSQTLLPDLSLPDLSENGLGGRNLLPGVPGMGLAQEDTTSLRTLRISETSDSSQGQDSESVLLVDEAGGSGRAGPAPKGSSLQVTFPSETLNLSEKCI

Structure (SMILES)	Emax (human EP4) [%]	EC50 (human EP4) [M]	Papp A→B at 1 h, 10 μM [1] [×10⁻⁶ cm/s]
Cc1cc(S(N)(=O)=O)ccc1-c1cncc(CN2CCOC[C@@H]2C(=O)N[C@@H](C)c2ccc(C(=O)O)cc2)c1 [Example 12, 4-[(1S)-1-[[(3R)-4-[[5-(2-methyl-4-sulfamoyl-phenyl)-3-pyridyl]methyl]morpholine-3-carbonyl]amino]ethyl]benzoic acid]	99	1.58e-08	0.12
Cc1cc(C(N)=O)ccc1-c1cc(O)cc(CN2CCOC[C@@H]2C(=O)N[C@@H](C)c2ccc(C(=O)O)c(O)c2)c1 [Example 18, 4-((S)-1-((R)-4-((4′-carbamoyl-5-hydroxy-2′-methyl-[1,1′-biphenyl]-3-yl)methyl)morpholine-3-carboxamido)ethyl)-2-hydroxybenzoic acid]	99	3.98e-10	0.78
Cc1cc(C(N)=O)ccc1-c1cccc(CN2CCOC[C@@H]2C(=O)NCc2ccc(C(=O)O)c(F)c2)c1 [Example 13, 4-[[[(3R)-4-[[3-(4-carbamoyl-2-methyl-phenyl)phenyl]methyl]morpholine-3-carbonyl]amino]methyl]-2-fluoro-benzoic acid]	96	1.26e-08	0.32
Cc1cc(S(N)(=O)=O)ccc1-c1ccnc(CN2CCOC[C@@H]2C(=O)N[C@@H](C)c2ccc(C(=O)O)cc2)c1 [Example 17, 4-[(1S)-1-[[(3R)-4-[[4-(2-methyl-4-sulfamoyl-phenyl)-2-pyridyl]methyl]morpholine-3-carbonyl]amino]ethyl]benzoic acid]	98	–	0.12
C[C@H](NC(=O)[C@H]1COCCN1Cc1ccc(O)c(-c2ccc(S(N)(=O)=O)cc2)c1)c1ccc(C(=O)O)cc1 [Example 24, 4-[(1S)-1-[[(3R)-4-[[4-hydroxy-3-(4-sulfamoylphenyl)phenyl]methyl]morpholine-3-carbonyl]amino]ethyl]benzoic acid]	96	2.51e-08	0.26
Cc1cc(C(N)=O)ccc1-c1cncc(CN2CCOC[C@@H]2C(=O)N[C@@H](C)c2ccc(C(=O)O)cc2)c1 [Example 1, 4-((S)-1-((R)-4-((5-(4-carbamoyl-2-methylphenyl)pyridin-3-yl)methyl)morpholine-3-carboxamido)ethyl)benzoic acid]	96	1e-08	0.24

Next, values leading:

Emax (human EP4) [%]	EC50 (human EP4) [M]	Papp A→B at 1 h, 10 μM [1] [×10⁻⁶ cm/s]	Structure (SMILES)
97	6.31e-09	< 0.1	Cc1cc(S(N)(=O)=O)ccc1-c1cccc(CN2CCOC[C@@H]2C(=O)N[C@@H](C)c2ccc(C(=O)O)c(O)c2)c1 [Example 25, 2-hydroxy-4-((S)-1-((R)-4-((2′-methyl-4′-sulfamoyl-[1,1′-biphenyl]-3-yl)methyl)morpholine-3-carboxamido)ethyl)benzoic acid]
–	> 1e-07	< 0.1	Cc1cc(C(N)=O)ccc1-c1cc(O)cc(CN2CCOC[C@H]2C(=O)N[C@@H](C)c2ccc(C(=O)O)cc2)c1 [Example 37, 4-((S)-1-((S)-4-((4′-carbamoyl-5-hydroxy-2′-methyl-[1,1′-biphenyl]-3-yl)methyl)morpholine-3-carboxamido)ethyl)benzoic acid]
91	6.31e-10	0.15	NC(=O)c1ccc(-c2cccc(CN3CCOC[C@@H]3C(=O)NC3(c4ccc(C(=O)O)cc4)CC3)c2)c(O)c1 [Example 32, (R)-4-(1-(4-((4′-carbamoyl-2′-hydroxy-[1,1′-biphenyl]-3-yl)methyl)morpholine-3-carboxamido)cyclopropyl)benzoic acid]
